# Assay results as given in ChEMBL document CHEMBL1201861, “Genomics of Drug Sensitity in Cancer screening data, Wellcome Trust Sanger Institute”.
# pIC50: −log10 of the molar value.
# Key:
# Experiment in all cases: cells
# Ca-Ski = format: functional, cell-based, Homo sapiens;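 note: cell viability assay measuring inhibition of Ca-Ski cell growth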
# Description: SANGER: Inhibition of human Ca-Ski cell growth in a cell viability assay.
# Ca9-22 = format: functional, cell-based, Homo sapiens;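 note: growth inhibition of Ca9-22 cells, read out with a cell viability assay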
# Description: SANGER: Inhibition of human Ca9-22 cell growth in a cell viability assay.
# ChaGo-K-1 = format: functional, cell-based, Homo sapiens;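 note: growth inhibition of ChaGo-K-1 cells, read out with a cell viability assay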
# Description: SANGER: Inhibition of human ChaGo-K-1 cell growth in a cell viability assay.
# HCC1954 = format: functional, cell-based, Homo sapiens;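 note: growth inhibition of human HCC1954 cells, read out with a cell viability assay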
# Description: SANGER: Inhibition of human HCC1954 cell growth in a cell viability assay.
# HCC38 = format: functional, cell-based, Homo sapiens;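 note: cell viability assay on the human HCC38 cell line, with IC50 marking the concentration that inhibits cell growth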
# Description: SANGER: Inhibition of human HCC38 cell growth in a cell viability assay.
# HGC-27 = format: functional, cell-based, Homo sapiens;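 note: growth inhibition of human HGC-27 cells, read out in a cell viability assay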
# Description: SANGER: Inhibition of human HGC-27 cell growth in a cell viability assay.
# HLE = format: functional, cell-based, Homo sapiens;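 note: growth inhibition of human HLE cells, read out by a cell viability assay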
# Description: SANGER: Inhibition of human HLE cell growth in a cell viability assay.
# HT1197 = format: functional, cell-based, Homo sapiens, HT-1197
# Description: SANGER: Inhibition of human HT-1197 cell growth in a cell viability assay.
# HT-29 = format: functional, cell-based, Homo sapiens;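 note: growth inhibition of human HT-29 cells, read out by a cell viability assay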
# Description: SANGER: Inhibition of human HT-29 cell growth in a cell viability assay.
# J82 = format: functional, cell-based, Homo sapiens;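 note: growth inhibition of J82 cells, read out with a cell viability assay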
# Description: SANGER: Inhibition of human J82 cell growth in a cell viability assay.
# JEG-3 = format: functional, cell-based, Homo sapiens;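 note: growth inhibition of human JEG-3 cells, read out with a cell viability assay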
# Description: SANGER: Inhibition of human JEG-3 cell growth in a cell viability assay.
# KP-4 = format: functional, cell-based, Homo sapiens;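 note: human KP-4 cells, with growth inhibition read out through a cell viability assay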
# Description: SANGER: Inhibition of human KP-4 cell growth in a cell viability assay.
# KYSE-520 cell line = format: functional, cell-based, Homo sapiens;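 note: growth inhibition of human KYSE-520 cells, read out with a viability assay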
# Description: SANGER: Inhibition of human KYSE-520 cell growth in a cell viability assay.
# KYSE-70 cell line = format: functional, cell-based, Homo sapiens;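 note: cell viability assay read-out, with IC50 expressing suppression of KYSE-70 cell growth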
# Description: SANGER: Inhibition of human KYSE-70 cell growth in a cell viability assay.
# LoVo = format: functional, cell-based, Homo sapiens;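 note: growth inhibition of human LoVo cells, read out with a cell viability assay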
# Description: SANGER: Inhibition of human LoVo cell growth in a cell viability assay.
# MeWo = format: functional, cell-based, Homo sapiens;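 note: growth inhibition of MeWo cells, determined by a cell viability readout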
# Description: SANGER: Inhibition of human Mewo cell growth in a cell viability assay.
# NCI-H1048 = format: functional, cell-based, Homo sapiens;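 note: growth inhibition of human NCI-H1048 cells, read out with a cell viability assay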
# Description: SANGER: Inhibition of human NCI-H1048 cell growth in a cell viability assay.
# NCI-H1651 = format: functional, cell-based, Homo sapiens;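 note: Read-out is a cell viability assay, with IC50 expressing inhibition of NCI-H1651 cell growth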
# Description: SANGER: Inhibition of human NCI-H1651 cell growth in a cell viability assay.
# NCI-H1693 = format: functional, cell-based, Homo sapiens;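 note: growth inhibition of the human cell line, read out with a cell viability assay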
# Description: SANGER: Inhibition of human NCI-H1693 cell growth in a cell viability assay.
# NCI-H2029 = format: functional, cell-based, Homo sapiens;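 note: Read-out is a viability assay on the cultured cells, and IC50 is the concentration that suppresses cell growth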
# Description: SANGER: Inhibition of human NCI-H2029 cell growth in a cell viability assay.
# NCI-H2228 = format: functional, cell-based, Homo sapiens;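 note: growth inhibition of human NCI-H2228 cells, read out by a cell viability assay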
# Description: SANGER: Inhibition of human NCI-H2228 cell growth in a cell viability assay.
# PC-14 = format: functional, cell-based, Homo sapiens;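 note: cell viability assay measuring inhibition of PC-14 cell growth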
# Description: SANGER: Inhibition of human PC-14 cell growth in a cell viability assay.
# RD = format: functional, cell-based, Homo sapiens
# Description: SANGER: Inhibition of human RD cell growth in a cell viability assay.
# RPMI-2650 = format: functional, cell-based, Homo sapiens
# Description: SANGER: Inhibition of human RPMI-2650 cell growth in a cell viability assay.
# SK-MEL-30 = format: functional, cell-based, Homo sapiens;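 note: growth inhibition of SK-MEL-30 cells, determined with a cell viability assay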
# Description: SANGER: Inhibition of human SK-MEL-30 cell growth in a cell viability assay.
# SK-OV-3 = format: functional, cell-based, Homo sapiens;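 note: growth inhibition of SK-OV-3 human cells, read out with a cell viability assay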
# Description: SANGER: Inhibition of human SK-OV-3 cell growth in a cell viability assay.
# SW48 = format: functional, cell-based, Homo sapiens;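 note: growth inhibition of SW48 cells, read out with a cell viability assay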
# Description: SANGER: Inhibition of human SW48 cell growth in a cell viability assay.
# T47D = format: functional, cell-based, Homo sapiens;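 note: growth inhibition of human T47D cells, measured with a cell viability assay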
# Description: SANGER: Inhibition of human T47D cell growth in a cell viability assay.
# T84 = format: functional, cell-based, Homo sapiens;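 note: growth inhibition measured with a cell viability readout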
# Description: SANGER: Inhibition of human T84 cell growth in a cell viability assay.
# 786-0 = format: functional, cell-based, Homo sapiens
# Description: SANGER: Inhibition of human 786-0 cell growth in a cell viability assay.
# A204 = format: functional, cell-based, Homo sapiens;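 note: growth inhibition of human A204 cells, read out with a cell viability assay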
# Description: SANGER: Inhibition of human A204 cell growth in a cell viability assay.
# A-431 = format: functional, cell-based, Homo sapiens;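 note: growth inhibition of A-431 cells, determined with a cell viability read-out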
# Description: SANGER: Inhibition of human A431 cell growth in a cell viability assay.
# ABC-1 = format: functional, cell-based, Homo sapiens;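 note: growth inhibition of human ABC-1 cells, read out by a cell viability assay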
# Description: SANGER: Inhibition of human ABC-1 cell growth in a cell viability assay.
# ACHN = format: functional, cell-based, Homo sapiens;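 note: cell viability read-out used to gauge how strongly growth of human ACHN cells is suppressed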
# Description: SANGER: Inhibition of human ACHN cell growth in a cell viability assay.
# ASPC1 = format: functional, cell-based, Homo sapiens;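 note: growth inhibition of AsPC-1 cells, read out with a cell viability assay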
# Description: SANGER: Inhibition of human AsPC-1 cell growth in a cell viability assay.
# BHT-101 = format: functional, cell-based, Homo sapiens
# Description: SANGER: Inhibition of human BHT-101 cell growth in a cell viability assay.
# BT-549 = format: functional, cell-based, Homo sapiens
# Description: SANGER: Inhibition of human BT-549 cell growth in a cell viability assay.
# C3A = format: functional, cell-based, Homo sapiens;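 note: growth inhibition of C3A human cells, quantified with a cell viability readout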
# Description: SANGER: Inhibition of human C3A cell growth in a cell viability assay.
# CHP-212 = format: functional, cell-based, Homo sapiens
# Description: SANGER: Inhibition of human CHP-212 cell growth in a cell viability assay.
compound,measurement,setting,value
CC1(C)CNc2cc(NC(=O)c3cccnc3NCc3ccncc3)ccc21 [MOTESANIB],pIC50,"Ca-Ski; Homo sapiens, Ca-Ski",< 5.70
same,pIC50,"Ca9-22; Homo sapiens, Ca9-22",< 5.70
same,pIC50,"ChaGo-K-1; Homo sapiens, ChaGo-K-1",< 5.70
same,pIC50,"HCC1954; Homo sapiens, HCC1954",< 5.70
same,pIC50,"HCC38; Homo sapiens, HCC38",< 5.70
same,pIC50,"HGC-27; Homo sapiens, HGC-27",< 5.70
same,pIC50,"HLE; Homo sapiens, HLE",< 5.70
same,pIC50,"HT1197; Homo sapiens, HT1197",< 5.70
same,pIC50,"HT-29; Homo sapiens, HT-29",< 5.70
same,pIC50,"J82; Homo sapiens, J82",< 5.70
same,pIC50,"JEG-3; Homo sapiens, JEG-3",< 5.70
same,pIC50,"KP-4; Homo sapiens, KP-4",< 5.70
same,pIC50,"KYSE-520 cell line; Homo sapiens, KYSE-520",< 5.70
same,pIC50,"KYSE-70 cell line; Homo sapiens, KYSE-70",< 5.70
same,pIC50,"LoVo; Homo sapiens, LoVo",< 5.70
same,pIC50,"MeWo; Homo sapiens, MeWo",< 5.70
same,pIC50,"NCI-H1048; Homo sapiens, NCI-H1048",< 5.70
same,pIC50,"NCI-H1651; Homo sapiens, NCI-H1651",< 5.70
same,pIC50,"NCI-H1693; Homo sapiens, NCI-H1693",< 5.70
same,pIC50,"NCI-H2029; Homo sapiens, NCI-H2029",< 5.70
same,pIC50,"NCI-H2228; Homo sapiens, NCI-H2228",< 5.70
same,pIC50,"PC-14; Homo sapiens, PC-14",< 5.70
same,pIC50,"RD; Homo sapiens, RD",< 5.70
same,pIC50,"RPMI-2650; Homo sapiens, RPMI-2650",< 5.70
same,pIC50,"SK-MEL-30; Homo sapiens, SK-MEL-30",< 5.70
same,pIC50,"SK-OV-3; Homo sapiens, SK-OV-3",< 5.70
same,pIC50,"SW48; Homo sapiens, SW48",< 5.70
same,pIC50,"T47D; Homo sapiens, T47D",< 5.70
same,pIC50,"T84; Homo sapiens, T84",< 5.70
same,pIC50,786-0; Homo sapiens,< 5.70
same,pIC50,"A204; Homo sapiens, A204",6.29
same,pIC50,"A-431; Homo sapiens, A-431",< 5.70
same,pIC50,"ABC-1; Homo sapiens, ABC-1",< 5.70
same,pIC50,"ACHN; Homo sapiens, ACHN",< 5.70
same,pIC50,"ASPC1; Homo sapiens, ASPC1",< 5.70
same,pIC50,"BHT-101; Homo sapiens, BHT-101",< 5.70
same,pIC50,"BT-549; Homo sapiens, BT-549",< 5.70
same,pIC50,"C3A; Homo sapiens, C3A",< 5.70
same,pIC50,"CHP-212; Homo sapiens, CHP-212",< 5.70
CO[C@H]1C[C@@H]2CC[C@@H](C)[C@@](O)(O2)C(=O)C(=O)N2CCCC[C@H]2C(=O)O[C@H]([C@H](C)C[C@@H]2CC[C@@H](OC(=O)C(C)(CO)CO)[C@H](OC)C2)CC(=O)[C@H](C)/C=C(\C)[C@@H](O)[C@@H](OC)C(=O)[C@H](C)C[C@H](C)/C=C/C=C/C=C/1C [TEMSIROLIMUS],pIC50,"Ca-Ski; Homo sapiens, Ca-Ski",< 6.70
same,pIC50,"Ca9-22; Homo sapiens, Ca9-22",7.01
same,pIC50,"ChaGo-K-1; Homo sapiens, ChaGo-K-1",< 6.70
same,pIC50,"HCC1954; Homo sapiens, HCC1954",< 6.70
same,pIC50,"HCC38; Homo sapiens, HCC38",< 6.70
same,pIC50,"HGC-27; Homo sapiens, HGC-27",8.02
same,pIC50,"HLE; Homo sapiens, HLE",7.27
same,pIC50,"HT1197; Homo sapiens, HT1197",< 6.70
same,pIC50,"HT-29; Homo sapiens, HT-29",< 6.70
same,pIC50,"J82; Homo sapiens, J82",6.83
same,pIC50,"JEG-3; Homo sapiens, JEG-3",< 6.70
same,pIC50,"KP-4; Homo sapiens, KP-4",6.94
same,pIC50,"KYSE-520 cell line; Homo sapiens, KYSE-520",6.86
same,pIC50,"KYSE-70 cell line; Homo sapiens, KYSE-70",< 6.70
same,pIC50,"LoVo; Homo sapiens, LoVo",< 6.70
same,pIC50,"MeWo; Homo sapiens, MeWo",7.31
same,pIC50,"NCI-H1048; Homo sapiens, NCI-H1048",< 6.70
same,pIC50,"NCI-H1651; Homo sapiens, NCI-H1651",< 6.70
same,pIC50,"NCI-H1693; Homo sapiens, NCI-H1693",7.04
same,pIC50,"NCI-H2029; Homo sapiens, NCI-H2029",< 6.70
same,pIC50,"NCI-H2228; Homo sapiens, NCI-H2228",< 6.70
same,pIC50,"PC-14; Homo sapiens, PC-14",< 6.70
same,pIC50,"RD; Homo sapiens, RD",6.84
same,pIC50,"RPMI-2650; Homo sapiens, RPMI-2650",6.93
same,pIC50,"SK-MEL-30; Homo sapiens, SK-MEL-30",< 6.70
same,pIC50,"SK-OV-3; Homo sapiens, SK-OV-3",< 6.70
same,pIC50,"SW48; Homo sapiens, SW48",< 6.70
same,pIC50,"T47D; Homo sapiens, T47D",6.97
same,pIC50,"T84; Homo sapiens, T84",< 6.70
same,pIC50,786-0; Homo sapiens,7.29
same,pIC50,"A204; Homo sapiens, A204",7.41
same,pIC50,"A-431; Homo sapiens, A-431",< 6.70
same,pIC50,"ABC-1; Homo sapiens, ABC-1",< 6.70
same,pIC50,"ACHN; Homo sapiens, ACHN",< 6.70
same,pIC50,"ASPC1; Homo sapiens, ASPC1",< 6.70
same,pIC50,"BHT-101; Homo sapiens, BHT-101",6.71
same,pIC50,"BT-549; Homo sapiens, BT-549",< 6.70
same,pIC50,"C3A; Homo sapiens, C3A",< 6.70
same,pIC50,"CHP-212; Homo sapiens, CHP-212",7.28
Nc1cccc2c1CN(C1CCC(=O)NC1=O)C2=O (stereo unspecified) [LENALIDOMIDE],pIC50,"Ca-Ski; Homo sapiens, Ca-Ski",< 5.30
same,pIC50,"Ca9-22; Homo sapiens, Ca9-22",< 5.30
same,pIC50,"ChaGo-K-1; Homo sapiens, ChaGo-K-1",< 5.30
same,pIC50,"HCC1954; Homo sapiens, HCC1954",< 5.30
same,pIC50,"HCC38; Homo sapiens, HCC38",< 5.30
same,pIC50,"HGC-27; Homo sapiens, HGC-27",< 5.30
same,pIC50,"HLE; Homo sapiens, HLE",< 5.30
same,pIC50,"HT1197; Homo sapiens, HT1197",< 5.30
same,pIC50,"HT-29; Homo sapiens, HT-29",< 5.30
same,pIC50,"J82; Homo sapiens, J82",< 5.30
same,pIC50,"JEG-3; Homo sapiens, JEG-3",< 5.30
same,pIC50,"KP-4; Homo sapiens, KP-4",< 5.30
same,pIC50,"KYSE-520 cell line; Homo sapiens, KYSE-520",< 5.30
same,pIC50,"KYSE-70 cell line; Homo sapiens, KYSE-70",< 5.30
same,pIC50,"LoVo; Homo sapiens, LoVo",< 5.30
same,pIC50,"MeWo; Homo sapiens, MeWo",< 5.30
same,pIC50,"NCI-H1048; Homo sapiens, NCI-H1048",< 5.30
same,pIC50,"NCI-H1651; Homo sapiens, NCI-H1651",< 5.30
same,pIC50,"NCI-H1693; Homo sapiens, NCI-H1693",< 5.30
same,pIC50,"NCI-H2029; Homo sapiens, NCI-H2029",< 5.30
same,pIC50,"NCI-H2228; Homo sapiens, NCI-H2228",< 5.30
same,pIC50,"PC-14; Homo sapiens, PC-14",< 5.30
same,pIC50,"RD; Homo sapiens, RD",< 5.30
same,pIC50,"RPMI-2650; Homo sapiens, RPMI-2650",< 5.30
same,pIC50,"SK-MEL-30; Homo sapiens, SK-MEL-30",< 5.30
same,pIC50,"SK-OV-3; Homo sapiens, SK-OV-3",< 5.30
same,pIC50,"SW48; Homo sapiens, SW48",< 5.30
same,pIC50,"T47D; Homo sapiens, T47D",< 5.30
same,pIC50,"T84; Homo sapiens, T84",< 5.30
same,pIC50,786-0; Homo sapiens,< 5.30
same,pIC50,"A204; Homo sapiens, A204",< 5.30
same,pIC50,"A-431; Homo sapiens, A-431",< 5.30
same,pIC50,"ABC-1; Homo sapiens, ABC-1",< 5.30
same,pIC50,"ACHN; Homo sapiens, ACHN",< 5.30
same,pIC50,"ASPC1; Homo sapiens, ASPC1",< 5.30
same,pIC50,"BHT-101; Homo sapiens, BHT-101",< 5.30
same,pIC50,"BT-549; Homo sapiens, BT-549",< 5.30
same,pIC50,"C3A; Homo sapiens, C3A",< 5.30
same,pIC50,"CHP-212; Homo sapiens, CHP-212",< 5.30
CISPLATIN,pIC50,Ca-Ski; ca-ski,4.99
same,pIC50,Ca9-22; ca9-22,4.98
same,pIC50,ChaGo-K-1; chago-k-1,4.82
same,pIC50,HCC1954; hcc1954,2.99
same,pIC50,HCC38; hcc38,3.80
same,pIC50,HGC-27; hgc-27,5.18
same,pIC50,HLE; hle,5.22
same,pIC50,HT1197; ht-1197,4.88
same,pIC50,HT-29; ht-29,3.21
same,pIC50,J82; j82,5.29
same,pIC50,JEG-3; jeg-3,4.99
same,pIC50,KP-4; kp-4,4.93
same,pIC50,KYSE-520 cell line; kyse-520,4.66
same,pIC50,KYSE-70 cell line; kyse-70,4.31
same,pIC50,LoVo; lovo,4.24
same,pIC50,MeWo; mewo,4.78
same,pIC50,NCI-H1048; nci-h1048,5.01
same,pIC50,NCI-H1651; nci-h1651,5.15
same,pIC50,NCI-H1693; nci-h1693,3.91
same,pIC50,NCI-H2029; nci-h2029,3.02
same,pIC50,NCI-H2228; nci-h2228,5.08
same,pIC50,PC-14; pc-14,5.24
same,pIC50,RD; rd,4.84
same,pIC50,RPMI-2650; rpmi-2650,4.12
same,pIC50,SK-MEL-30; sk-mel-30,3.32
same,pIC50,SK-OV-3; sk-ov-3,3.21
same,pIC50,SW48; sw48,5.04
same,pIC50,T47D; t47d,3.89
same,pIC50,T84; t84,3.45
same,pIC50,786-0,5.35
same,pIC50,A204; a204,4.19
same,pIC50,A-431; a-431,3.24
same,pIC50,ABC-1; abc-1,5.44
same,pIC50,ACHN; achn,5.09
same,pIC50,ASPC1; aspc1,4.68
same,pIC50,BHT-101; bht-101,5.23
same,pIC50,BT-549; bt-549,4.84
same,pIC50,C3A; c3a,3.39
same,pIC50,CHP-212; chp-212,4.59
